From US6355428B1, “Nucleic acid ligand interaction assays” (Genelabs Technologies, Inc., priority 1998, dated 2002)
Starred links: 1 amine or outer side, 2 acyl side, 3 side chain; linkers in the order of their positions; H or OH if unused. Positions of bridges follow the written chain, without caps; N, C: chain ends. Non-standard residues stand in square brackets, D forms with d. Residues, ends and D or L forms follow the SMILES beside them. Chains are numbered I, II in the order given. Actinocin(9to1) = Cc1c2oc3c(C)ccc(C(=O)[*:1])c3nc-2c(C(=O)[*:2])c(N)c1=O; NMeV = CN[C@H](C(=O)O)C(C)C; Sar = CNCC(=O)O

Assays:
[1] = test system: RNA 5′-rCUAGAUCUGA-3′ (SEQ ID NO: 23) double stranded RNA probe; test: Fluorescence quenching direct binding assay, RNA; details: increasing bekanomycin
Procedure: (§1) The specific examples described in this section employ fluorescence quenching as the detection system. In these examples, because conditions are adjusted to maintain the oligonucleotides in single-stranded form in the absence of the ligand, the assay starts with the system at a high or maximum level of fluorescence, and fluorescence generally decreases, depending on binding affinity, as the ligand is added.
In the Figure legends, RNA oligonucleotides are denoted by an “r” at the beginning of the sequence, and single stranded controls by “ss” at the end of the sequence. These single stranded sequence, are used alone in control experiments, which thus employ only an “F” strand and no complementary quenching strand. Any quenching of fluorescence that is not due to hybridization can thus be acounted for. Maximum quenching expected on complete hybridization of these oligonucleotides is 85-90%; therefore some signal remains after complete hybridization. The signal is plotted so that it is normalized to the control signal in the absence of ligand.
Netropsin has been shown in previous studies to bind preferentially to A/T rich regions of DNA. […] Netropsin also binds well to the sequence 5′-GCGGTATTT-3′ (SEQ ID NO: 12), which is a useful “indicator” probe (as discussed below), having both C/G and A/T rich sequences. […]

[2] = test system: F/Q indicator oligonucleotide pairs (Table I); test: Fluorescence quenching direct binding assay, panel of F/Q indicator oligonucleotide pairs; details: concentrations up to 5 μM; tRNA added
Procedure: as §1
In the Figure legends, RNA oligonucleotides are denoted by an “r” at the beginning of the sequence, and single stranded controls by “ss” at the end of the sequence. These single stranded sequence, are used alone in control experiments, which thus employ only an “F” strand and no complementary quenching strand. Any quenching of fluorescence that is not due to hybridization can thus be acounted for. Maximum quenching expected on complete hybridization of these oligonucleotides is 85-90%; therefore some signal remains after complete hybridization. […]
According to the general method described above, increasing amounts of netropsin or actinomycin, respectively, were added to mixtures of selected F/Q indicator oligonucleotide pairs, whose sequences are shown in the legends of FIGS. 1 and 3. […] The Figures show the level of fluorescence observed, relative to a control having no added drug, for each indicator pair (or single strand) as the level of added drug was increased. […]

[3] = test system: A/T rich, G/C rich and mixed sequence DNA oligonucleotides; test: SPA direct binding assay, sequence preference over panel of indicator oligonucleotides; details: A/T rich 5′-AAAATAATAAAG, G/C rich 5′-GGCGCGG, mixed 5′-GTTGCAGATC; increasing drug
Description: This technology can be applied to studies of ligand binding as disclosed herein. […] These beads are impregnated with scintillant. The second oligonucleotide is labeled with a weak β-emitter, such as ^3H or ^33P. The radioactive second oligonucleotide is mixed with a solution of the beads under conditions at which the first and second oligonucleotides exist primarily as single strands, as described above. The signal will thus be low, as the oligonucleotides are non-hybridized. When ligand is added, the duplex form is stabilized, and the increased proximity of the radioactive isotope (e.g., ^3H, ^33P) in the second oligonucleotide causes the bead to which the first oligonucleotide is bound to scintillate. A signal thus indicates the presence of an effective binding ligand molecule; test sequences giving higher signals indicate the relative preference for different sequences.
Indicator oligonucleotides as shown in Table 1 were used in this assay, as shown in Table II and FIGS. 4A-E. One strand of each duplex was labeled with biotin at the 5′-end, and the complementary strand was 3′-labeled with ^33P. The two complementary strands were incubated with streptavidin-coated SPA beads (Amersham, Arlington Heights, Ill.) at room temperature in a buffer containing 20 mM HEPES, pH 7.5, 0.1 mM EDTA, and 20 mM NaCl. In the absence of ligand, and under these conditions, the oligonucleotides exist in single-stranded conformation. As a result, the oligonucleotide containing the radioactive label is not in close proximity to the SPA bead, and the light given off by the beads is low, i.e., at background. As a duplex-stabilizing ligand is added, the radioactive ^33P is brought into close proximity to the SPA bead, and the light emitted from the SPA bead increases.

SMILES	binding preference over all other test oligonucleotides (FIG. 3C) [1]	sequences bound (FIG. 3B) [2]	sequence preference of binding (FIGS. 4A-E) [3]
NCC1OC(OC2C(N)CC(N)C(OC3OC(CO)C(O)C(N)C3O)C2O)C(N)C(O)C1O (centres unmarked) [Bekanomycin, bekanomycin]	very strong preference for the double stranded RNA probe	–	–
Cc1c2oc3c(C)ccc(C(=O)N[C@@H]4C(=O)N[C@H](C(C)C)C(=O)N5CCC[C@H]5C(=O)N(C)CC(=O)N(C)[C@@H](C(C)C)C(=O)O[C@@H]4C)c3nc-2c(C(=O)N[C@@H]2C(=O)N[C@H](C(C)C)C(=O)N3CCC[C@H]3C(=O)N(C)CC(=O)N(C)[C@@H](C(C)C)C(=O)O[C@@H]2C)c(N)c1=O [actinomycin D] (I: T[dV]P[Sar][NMeV] / II: T[dV]P[Sar][NMeV]; ester I:1-I:C, II:1-II:C; linker I:N-II:N via Actinocin(9to1))	–	binding only to the C/G containing sequences (SEQ ID NOS: 6, 8, and 12)	preferred GC-rich sequences
CC(=O)NCC(=O)O.CC(=O)NCC(=O)O.N=C(N)c1ccc(N=NNc2ccc(C(=N)N)cc2)cc1 [berenil]	–	–	no strong preference
COC(C(=O)C(O)C(C)O)C1Cc2cc3cc(OC4CC(OC5CC(O)C(OC)C(C)O5)C(OC(C)=O)C(C)O4)c(C)c(O)c3c(O)c2C(=O)C1OC1CC(OC2CC(OC3CC(C)(O)C(OC(C)=O)C(C)O3)C(O)C(C)O2)C(O)C(C)O1 (centres unmarked) [chromomycin A]	–	–	preferred GC-rich sequences
